# According to US5534492A, “Muramyl peptide for the treatment of toxicity” (Peptech (UK) Limited, priority 1992, dated 1996):
# Assays:
# mice [1] = assay: Acute toxicity, LD50 test in mice; assay type: in vivo
# Text: This compound (Compound II in U.S. Pat. No. 4,395,399), also known as glycopin, has already undergone preclinical toxicity testing and pharmacokinetic investigations required for licensing for clinical use in the USSR. The acute toxicity in mice, measured by the LD50 test is 7 g/kg.
# Water solubility = assay type: physicochemical
# Text: GMDP also has the particular advantage, shared with the other glucosaminyl-muramyl peptides of U.S. Pat. No. 4,395,399, of being water soluble: this is a real benefit for parenteral administration. The choice of this muramyl dipeptide which in many ways is contrary to the trend in the art. Both muroctasin and MTP-PE have been specifically synthesised to incorporate a lipophilic group, and many non-lipophile-substituted muramyl dipeptides have been formulated in lipophilic preparations such as liposomes (as in U.S. Pat. No. 4,522,811 and U.S. Pat. No. 4,684,625), purportedly to enhance the activity of the muramyl dipeptide. In the present invention, water solubility is preferred.
# Pyrogenicity = assay: Pyrogenicity
# Text: Pyrogenicity is a problem which has caused difficulties for the exploitation of certain muramyl dipeptides. Pyrogenicity may be attenuated by appropriate formulations (see, for example, the liposomal formulations of U.S. Pat. Nos. 4,522,811 and 4,684,625), but in general it will be preferable to choose, for use in the present invention, a muramyl dipeptide which has low intrinsic pyrogenicity. […] Such an analogue is available, and is N-acetyl-glucosaminyl-N-acetyl-muramyl-L-alanyl-D-glutamic acid (GMDP-A), which is Compound III in U.S. Pat. No. 4,395,399, and whose structure is as follows: [drawing 5]
# outbred white mice = assay: Duration of ethanol narcosis in outbred white mice; assay type: in vivo; settings: GMDP at least 0.01 mg/kg IP, three daily injections; ethanol 4.5 g/kg IP; vs control
# Text: (§1) Outbred white mice were given three intraperitoneal injections of GMDP at daily intervals and challenged with ethanol (4.5 g/kg IP) after the last GMDP injection. Narcosis was defined as the time in the lateral position ("leglessness"). […] Each group contained 10 to 12 mice.
# In this example, the influence of GMDPA and various GMDP or GMDPA analogues on ethanol narcosis was studied. The procedure of Example 1 was followed, except that instead of the GMDP, one of the following compounds was administered IP at 1 mg/kg daily for three days: […]
# outbred mice = assay: Duration of acetaldehyde narcosis in outbred mice; assay type: in vivo; settings: GMDP IP, three daily injections; acetaldehyde 450 mg/kg IP
# Experimental: as §1
# The procedure of Example 1 was followed but modified to study the duration of acetaldehyde narcosis. Acetaldehyde, at 450 mg/kg was administered IP after the last GMDP dose, instead of the ethanol.
# mice [2] = assay: Duration of HEXENAL (hexobarbital) narcosis in mice, oral GMDP; assay type: in vivo; settings: for Effect % (M ± m): vs control
# Experimental: This example studies the effect of GMDP on the duration of narcosis induced by hexobarbital.
# GMDP was administered orally to mice 15 minutes before the intraperitoneal injection of hexobarbital (HEXENAL™) at 50 mg/kg. The duration of narcosis (preservation of the lateral position) was recorded.
# [3] = tested on: liver microsomal cytochrome P450; assay: Optical difference spectrum with liver microsomal cytochrome P450; assay type: binding; settings: oxidised microsomes from phenobarbital-induced rat liver
# Text: The cytochrome P450 system is a system by means of which toxins are metabolised in the liver. A wide variety of substances combine with oxidised liver microsomal cytochrome P450 bringing about a change in absorbency. It has been shown that various drugs, substrates and inhibitors react with microsomal cytochrome P450 to give three characteristic types of spectral change.
# The three types of spectral changes are as follows.
# i) For substances such as ethylmorphine or hexobarbital, the minimum difference in the spectrum occurs at about 420 nm and the maximum at about 385-390 nm. These substances are designated type I compounds).
# ii) For compounds such as aniline or nicotinamide, the minimum difference in the spectrum occurs at about 390-410 nm and the maximum at about 430 nm. These substances are designated type II compounds.
# iii) Some compounds are apparently type II substrates but actually act by displacing endogenous type I substrates when added to microsomes. These compounds are designated reverse type I substrates.
# It has been shown that, for a number of substrates, the apparent binding constants calculated from spectral changes are related to the actual binding of type I substrates at the active site.
# Ks (spectral association constant) was 0.1 mM. This is Ks for the well known cytochrome P450 HEXENAL™.
# [4] = tested on: mice liver cytochrome P-450 system; assay: Indices of activity of mice liver cytochrome P-450 system after GMDP injections; assay type: in vivo
# Experimental: The experiments were performed on white male mice with a mass of […]. GMDP was dissolved in isotonic solution of sodium chloride and administered by means of intraperitoneal injection once a day for 3 days, with a dose of 20 mg/kg. A corresponding volume of the solvent was administered to control animals. Each group (test and control) consisted of 8 to 10 mice. Twenty-four hours after the last injection of the substances under test (test) and the solvent (control), the animals were killed, the liver was removed and its weight was determined. This was followed by the isolation of the microsomal fraction by means of differential centrifugation. The quality protein in it was determined according to the method of Lowry et al (Lowry et al, J. Biol. Chem., 193, 265-275 (1951)). Bovine serum albumin was used in the construction of calibrating plot. The content of cytochrome P450 and B5 in the liver microsomal fraction was determined by spectrophotometric method with the help of a `Hitachi-556` spectrophotometer. The rate of oxidation of aniline (p-hydroxylation) in microsomes in the presence of NADPH was determined spectrophotometrically on the basis of p-aminophenol which has formed already. The rate of oxidation of benzo(a)pyrene (BP) in liver microsomes was determined according to the intensity of fluorescence of the forming 3-oxibenzo (a) pyrene `Baird Nova` fluorimeter. The rate of hydroxylation of aniline and BP in microsomes was expressed in nmol of metabolites/nmol of cytochrome P450 per 1 minute, or in nmol of metabolites/mg of microsome protein per 1 minute. Statistical processing of the obtained data was performed with the use of Student's t-test.
# C57BL/6 mice = assay: Duration of hexenal narcosis in C57BL/6 mice; assay type: in vivo
# Text: Cytochrome P450 -dependent monooxygenase activity induction in accordance with pharmacological testing of HEXENAL™ narcosis duration in mice.
# In addition to the experiments, which have shown GMDP ability to interact directly with cytochrome P450 molecule as a substrate (in vitro) and to induce cytochrome P450 system in liver microsomes (GMDP effect in vivo), experiments for testing cytochrome P450 system according to the duration of HEXENAL™ narcosis in mice have been carried out. It is well known that HEXENAL™ is a substrate of cytochrome P450, and the duration of its narcotic effect clearly correlates with the rate of its oxidation in the liver cytochrome P450 system. The method of Example 6 was repeated, but instead of aniline and benzo(a)pyrene, the ability of the microsomes to metabolise HEXENAL™ was tested. The experiments performed have shown that GMDP in small doses is capable of inducing cytochrome P450 -dependent oxidation of HEXENAL™ (Tables 3 and 4).
# [5] = Placebo-controlled trial in colorectal surgery patients, blood bilirubin; assay type: in vivo, human; settings: GMDP 1, 2 or 3 mg per day for 10 days
# Text: Over 200 patients were enrolled in a placebo-controlled trial to determine the effect of GMDP on the outcome of colorectal surgery. Many of these patients had undergone previous chemotherapy for the treatment of cancers, often over substantial periods of time, with the result that liver damage had occurred.
# This was evidenced by such indicators as elevated bilirubin in their blood, resulting from the reduced ability of the liver to function as a detoxification organ. […] GMDP or placebo were administered for 10 days, and bilirubin levels in the blood were measured before and after the course of treatment. Bilirubin data were obtained from 182 of the subjects. It is clear that the average blood level of bilirubin decreased in the GMDP-treated group and the two asterisks indicate that this decrease was statistically highly significant (p=0.002). […] Blood levels of bilirubin before the trial were not different in the two groups.
# [6] = tested on: cells of the reticulo-endothelial system; settings: cited from earlier work
# inbred C57 B1/6 mice = assay: Acetaldehyde narcosis in inbred C57 B1/6 mice; assay type: in vivo; settings: GMDPA IP daily for three days
# Experimental: as §1
# This example studies the influence of GMDPA on acetaldehyde narcosis in inbred C57 B1/6 mice. The procedure of Example 1 was generally followed except that GMDPA was injected IP daily for three days and acetaldehyde was given 1, 4, 8 or 12 days later.
# [7] = GMDP 0.01 mg/kg orally 15 min before hexobarbital 50 mg/kg i.p.
# [8] = GMDP 0.1 mg/kg orally 15 min before hexobarbital 50 mg/kg i.p.
# [9] = GMDP 1.0 mg/kg orally 15 min before hexobarbital 50 mg/kg i.p.
# [10] = 24 hours after GMDP 20 mg/kg × 3 days i.p.
# [11] = GMDP relative to control, 20 mg/kg × 3 days
# [12] = liver microsomes, 24 hours after GMDP 20 mg/kg × 3 days i.p.
# [13] = GMDP 0.01 mg/kg × 3 days i.p, hexenal 50 mg/kg 24 hours after GMDP injections
# [14] = GMDP i.p injection simultaneously with hexenal injection, 50 mg/kg
# [15] = GMDP i.p. injection 10 min after hexenal injection, 50 mg/kg
# [16] = GMDP i.p. injection 30 min before hexenal injection, 50 mg/kg
# [17] = GMDP i.p. injection 60 min before hexenal injection, 50 mg/kg
# [18] = GMDP per os 15 min before i.p injection of hexenal 50 mg/kg
compound,measurement,setting,value
"CC(=O)N[C@H]1[C@H](O[C@H]2[C@H](O[C@H](C)C(=O)N[C@@H](C)C(=O)N[C@H](CCC(=O)O)C(N)=O)[C@@H](NC(C)=O)C(O)O[C@@H]2CO)O[C@H](CO)[C@@H](O)[C@@H]1O (stereo partly drawn) [GMDP, N-acetyl-glucosaminyl-N-acetyl-muramyl-L-alanyl-D-isoglutamine]","acute toxicity in mice, LD50",mice [1],7000 mg/kg
same,water solubility,Water solubility,water soluble
same,pyrogenicity,Pyrogenicity,sufficiently low not to have prevented its clinical evaluation
same,duration of ethanol narcosis,outbred white mice,much shorter duration
same,duration of acetaldehyde narcosis,outbred mice,markedly shortened the duration of narcosis
same,Narcosis duration Min (M ± m),mice [2]; [7],15.48 ± 4.93 min
same,Effect % (M ± m),mice [2]; [7],-74.01 ± 8.15%
same,Narcosis duration Min (M ± m),mice [2]; [8],8.72 ± 2.98 min
same,Effect % (M ± m),mice [2]; [8],-85.59 ± 4.92%
same,Narcosis duration Min (M ± m),mice [2]; [9],18.47 ± 4.82 min
same,Effect % (M ± m),mice [2]; [9],-69.47 ± 7.96%
same,shortening of the duration of hexobarbital-induced narcosis,mice [2]; average over all the doses investigated,~4 fold
same,Ks (spectral association constant),[3],0.1 mM
same,type of optical difference spectrum,[3],type I optical difference spectrum
same,Liver weight mg/g of the animal weight,[4]; [10],80.0 mg/g of the animal weight
same,Microsomal protein mg/g of liver weight,[4]; [10],5.8 ± 0.31 mg/g of liver weight
same,"Aniline-hydroxylase (per mg of protein), %",[4]; [11],194%
same,"Aniline-hydroxylase (per nmol of cyt. P-450), %",[4]; [11],178%
same,"BP-hydroxylase (per mg of protein), %",[4]; [11],171%
same,"BP-hydroxylase (per nmol of cyt P-450), %",[4]; [11],218%
same,"Cytochrome P-450, %",[4]; [11],134%
same,"Microsomal protein, %",[4]; [11],129%
same,Cytochrome P-450 nmol/mg of protein,"[4]; liver microsomal fraction, 24 hours after GMDP 20 mg/kg × 3 days i.p.",0.87 ± 0.06 nmol/mg of protein
same,Aniline-hydroxylase nmol/mg of protein per 1 minute,[4]; [12],1.20 ± 0.1 nmol/mg of protein per 1 minut
same,Aniline-hydroxylase nmol/nmol of cyt. P-450 per 1 minute,[4]; [12],1.05 ± 0.01 nmol/nmol of cyt. P-450 per 1
same,BP-hydroxylase nmol/mg of protein per 1 minute,[4]; [12],0.6 ± 0.04 nmol/mg of protein per 1 minut
same,BP-hydroxylase nmol/nmol of cyt P-450 per 1 minute,[4]; [12],0.87 ± 0.09 nmol/nmol of cyt P-450 per 1 m
same,Narcosis duration min. (M ± m),C57BL/6 mice; [13],21.7 ± 5.2 min
same,Narcotic effect in % from control,C57BL/6 mice; [13],45%
same,Narcosis duration min. (M ± m),C57BL/6 mice; [14],25.7 ± 4.9 min
same,Narcotic effect in % from control,C57BL/6 mice; [14],85%
same,Narcosis duration min. (M ± m),C57BL/6 mice; [15],41.2 ± 3.3 min
same,Narcotic effect in % from control,C57BL/6 mice; [15],95%
same,Narcosis duration min. (M ± m),C57BL/6 mice; [16],18.4 ± 1.5 min
same,Narcotic effect in % from control,C57BL/6 mice; [16],61%
same,Narcosis duration min. (M ± m),C57BL/6 mice; [17],30.9 ± 5.7 min
same,Narcotic effect in % from control,C57BL/6 mice; [17],100%
same,Narcosis duration min. (M ± m),C57BL/6 mice; [18],31.3 ± 4.9 min
same,Narcotic effect in % from control,C57BL/6 mice; [18],57%
same,blood level of bilirubin after treatment vs placebo,[5],significantly different from bilirubin levels after placebo treatment
same,"average blood level of bilirubin, after vs before treatment",[5]; p=0.002,decreased
same,synthesis of the superoxide anion (O2^-),[6],stimulates the synthesis of the superoxide anion
N-acetyl-glucosaminyl-N-acetyl-muramyl-L-alanyl-D-glutamic acid [GMDPA],pyrogenicity,Pyrogenicity,substantially non-pyrogenic
same,inhibition of acetaldehyde narcosis,"inbred C57 B1/6 mice; acetaldehyde given 1, 4 or 8 days later",inhibition of narcosis occurred
same,inhibition of acetaldehyde narcosis,inbred C57 B1/6 mice; acetaldehyde given 12 days later,not 12
